Assay results reported in patent publication US20130131161A1, “METHODS AND COMPOSITIONS FOR CARDIOVASCULAR DISEASES AND CONDITIONS” (priority 2009, published 2013).
Where “and” joins values, the source holds several entries; their conditions need not be identical. Identical values can stand only once.

Test system: Human umbilical vein endothelial cells (HUVECs)
Assay: eNOS activity analysis: NO, ONOO− and NO/ONOO− release from HUVECs of 50 genotyped donors in response to LA-419 (Example 2)
Type: cell-based
Details: LA-419 1 μM
Procedure: Concurrent measurements of NO and ONOO^− were carried out with tandem electrochemical nanosensors combined into one working unit with a total diameter of 200-500 nm (FIG. 1). Their design was based on previously developed and well-characterized chemically modified carbon-fiber technology (Malinski and Taha, 1992; Lvovich and Scheeline, 1997). Each of the nanosensors was made by depositing a sensing material on the tip of a carbon fiber (length 4-5 μm, diameter 0.2-0.5 μm). The fibers were sealed with nonconductive epoxy and electrically connected to copper wires with conductive silver epoxy. A conductive film of polymeric nickel (II) tetrakis(3-methoxy-4-hydroxyphenyl)porphyrin for the NO-sensor and polymeric film of Mn (III) [2.2]paracyclophanylporphyrin was used for the ONOO^−-sensor.
A module of NO/ONOO^− nanosensors (diameter 1-2 μm) with a platinum wire (0.1 mm) counter electrode and saturated calomel reference electrode (SCE) were applied. Differential pulse voltammetry (DPV) and amperometry were performed with a computer-based Gamry VFP600 multichannel potentiostat. DPV was used to measure the basal NO and ONOO^− concentrations, and amperometry was used to measure changes in NO and ONOO^− concentrations from its basal level with time. The DPV current at the peak potential characteristic for NO oxidation (0.65 V) and ONOO^− reduction (−0.45 V) was directly proportional to the local concentrations of these compounds in the immediate vicinity of the sensor. Linear calibration curves (current vs. concentration) were constructed for each sensor from 10 nM to 3 μM before and after measurements with aliquots of NO and ONOO^− standard solutions, respectively. The detection limit of the sensors was 1.0 nM.
The quantification of each analyte (concentration in nM) was performed using a maximum current from amperograms and standard calibration curves. A reproducibility of measurements with nanosensors is relatively high (between 5-12%). […] The sensors were slowly raised 5±2 μm from the surface of a single endothelial cell. The eNOS agonist, calcium ionophore A23187 (CaI) as well as the different drugs were then added to the surrounding media at the cell surface with a nanoinjector that was also positioned by a computer controlled-micromanipulator.
This example describes the genotype-specific response of the three major eNOS variants to 1 μM and 5 μM concentrations of LA-419. The three major genetic polymorphisms studied were the Glu298Asp variant (E298D or 894G→T) in exon 7 of […], the −786T→C variant in the promoter region, and the intron 4 polymorphism (VNTR). All of these variants have possible effects on the cardiovascular system and endothelial dysfunction. For this study, human umbilical vein endothelial cells (HUVECs) from 50 donors between 18 and 32 years of age were used.
For the analysis several analysis techniques were employed. First, the effect of genotype on NO and ONOO^− release was explored within the different concentrations of LA-419 (control, 1 μM, 5 μM), calculated as the average peak release (nmols/L) of NO, ONOO^−, and NO/ONOO^−. The effect of genotype on the net increase in NO, ONOO^−, and NO/ONOO^− for LA-419 (1 μM and 5 μM) as compared to control was also measured. In addition, an analysis was done on the effect of genotype on the % change in NO, ONOO^−, and NO/ONOO^− production for LA-419 (1 μM and 5 μM), calculated as:
% Change=[(avg. LA-419−avg. control)/(avg. control)]*100
Finally, an evaluation was undertaken concerning the effect of genotype on the production of NO, ONOO^−, and NO/ONOO^− as the fold difference of control for LA-419 (1 μM and 5 μM), calculated as:
Fold Difference=(avg. LA-419)/(avg. control)
Within each calculation technique the results were compared for statistical significance using a non-parametric ANOVA Kruskal-Wallace test or a non-parametric Mann-Whitney U test. Statistical significance was set at a p-value <0.05 in a two-tailed distribution. […]

[1] = HUVECs G894T + T-786C Combination of all genotypes other than G/G + T/T
[2] = HUVECs G894T + T-786C variant G/G + T/C
[3] = HUVECs G894T + T-786C variant G/G + T/T (Reference)
[4] = HUVECs G894T + T-786C variant G/T + C/C
[5] = HUVECs G894T + T-786C variant G/T + T/C
[6] = HUVECs G894T + T-786C variant G/T + T/T
[7] = HUVECs G894T + T-786C variant T/T + C/C
[8] = HUVECs G894T + T-786C variant T/T + T/C

CC(=O)SC1COC2C(O[N+](=O)[O-])COC12 (stereo not drawn) [LA-419, S-(6-Nitro-oxi-hexahydro-furo[3,2-b]furan-3-1-il)thioacetate]
Net increase over control NO/ONOO− (mean ± sd) [1]: −0.92 (0.90)
Net increase over control ONOO− (mean ± sd) [1]: −42.43 (111.75) nmols/L
Peak release NO (mean ± sd) [1]: 390.03 (73.13) nmols/L
Peak release NO/ONOO− (mean ± sd) [1]: 1.29 (0.46)
Peak release ONOO− (mean ± sd) [1]: 331.26 (91.43) nmols/L
Net increase over control NO (mean ± sd) [2]: 5.33 (68.90) nmols/L
Net increase over control NO/ONOO− (mean ± sd) [2]: −0.88 (0.63)
Net increase over control ONOO− (mean ± sd) [2]: 13.13 (106.46) nmols/L
Peak release NO (mean ± sd) [2]: 351.00 (88.83) nmols/L
Peak release NO/ONOO− (mean ± sd) [2]: 1.09 (0.51)
Peak release ONOO− (mean ± sd) [2]: 357.00 (94.18) nmols/L
Net increase over control NO (mean ± sd) [3]: 31.22 (71.86) nmols/L
Net increase over control NO/ONOO− (mean ± sd) [3]: 1.16 (9.12)
Net increase over control ONOO− (mean ± sd) [3]: −32.54 (86.18) nmols/L
Peak release NO (mean ± sd) [3]: 374.30 (78.06) nmols/L
Peak release NO/ONOO− (mean ± sd) [3]: 1.19 (0.43)
Peak release ONOO− (mean ± sd) [3]: 338.98 (81.16) nmols/L
Net increase over control NO (mean ± sd) [4]: −53.67 (0) nmols/L
Net increase over control NO/ONOO− (mean ± sd) [4]: −0.24 (0)
Net increase over control ONOO− (mean ± sd) [4]: 228.33 (0) nmols/L
Peak release NO (mean ± sd) [4]: 334.67 (0) nmols/L
Peak release NO/ONOO− (mean ± sd) [4]: 0.64 (0)
Peak release ONOO− (mean ± sd) [4]: 526.67 (0) nmols/L
Net increase over control NO (mean ± sd) [5]: 76.26 (75.55) nmols/L
Net increase over control NO/ONOO− (mean ± sd) [5]: −1.21 (1.06)
Net increase over control ONOO− (mean ± sd) [5]: −81.10 (79.76) nmols/L
Peak release NO (mean ± sd) [5]: 420.44 (56.87) nmols/L
Peak release NO/ONOO− (mean ± sd) [5]: 1.44 (0.32)
Peak release ONOO− (mean ± sd) [5]: 302.82 (59.66) nmols/L
Net increase over control NO (mean ± sd) [6]: 28.92 (13.00) nmols/L
Net increase over control NO/ONOO− (mean ± sd) [6]: −0.99 (1.06)
Net increase over control ONOO− (mean ± sd) [6]: −2.83 (64.48) nmols/L
Peak release NO (mean ± sd) [6]: 409.67 (64.25) nmols/L
Peak release NO/ONOO− (mean ± sd) [6]: 1.37 (0.44)
Peak release ONOO− (mean ± sd) [6]: 321.58 (90.82) nmols/L
Net increase over control NO (mean ± sd) [7]: 20.67 (16.77) nmols/L
Net increase over control NO/ONOO− (mean ± sd) [7]: −0.56 (0.56)
Net increase over control ONOO− (mean ± sd) [7]: −42.44 (9.91) nmols/L
Peak release NO (mean ± sd) [7]: 334.11 (83.36) nmols/L
Peak release NO/ONOO− (mean ± sd) [7]: 0.96 (0.58)
Peak release ONOO− (mean ± sd) [7]: 398.00 (131.00) nmols/L
Net increase over control NO (mean ± sd) [8]: 20.83 (131.76) nmols/L
Net increase over control NO/ONOO− (mean ± sd) [8]: 0.07 (0.61)
Net increase over control ONOO− (mean ± sd) [8]: −227.83 (117.62) nmols/L
Peak release NO (mean ± sd) [8]: 420.83 (4.48) nmols/L
Peak release NO/ONOO− (mean ± sd) [8]: 1.80 (0.16)
Peak release ONOO− (mean ± sd) [8]: 234.67 (23.10) nmols/L
% Change Ratio, % Change NO/% Change ONOO− (mean ± sd) (HUVECs G894T variant G/G): 0.76 (8.64)
Net increase over control NO (mean ± sd) (HUVECs G894T variant G/G): 23.26 (70.68) nmols/L and 23.26 (70.64) nmols/L
Net increase over control NO/ONOO− (mean ± sd) (HUVECs G894T variant G/G): 0.53 (7.59)
Net increase over control ONOO− (mean ± sd) (HUVECs G894T variant G/G): −18.49 (93.20) nmols/L
Peak release NO (mean ± sd) (HUVECs G894T variant G/G): 367.13 (80.46) nmols/L
Peak release NO/ONOO− (mean ± sd) (HUVECs G894T variant G/G): 1.16 (0.45)
Peak release ONOO− (mean ± sd) (HUVECs G894T variant G/G): 344.53 (83.88) nmols/L
% Change Ratio, % Change NO/% Change ONOO− (mean ± sd) (HUVECs G894T variant G/T): −1.15 (0.91)
Net increase over control NO (mean ± sd) (HUVECs G894T variant G/T): 58.52 (72.43) nmols/L
Net increase over control NO/ONOO− (mean ± sd) (HUVECs G894T variant G/T): −1.12 (1.02)
Net increase over control ONOO− (mean ± sd) (HUVECs G894T variant G/T): −46.52 (105.03) nmols/L
Peak release NO (mean ± sd) (HUVECs G894T variant G/T): 413.28 (58.46) nmols/L
Peak release NO/ONOO− (mean ± sd) (HUVECs G894T variant G/T): 1.38 (0.38)
Peak release ONOO− (mean ± sd) (HUVECs G894T variant G/T): 319.43 (81.89) nmols/L
Net increase over control NO (mean ± sd) (HUVECs G894T variant G/T & T/T): 50.30 (71.57) nmols/L
Net increase over control NO/ONOO− (mean ± sd) (HUVECs G894T variant G/T & T/T): −0.93 (0.99)
Net increase over control ONOO− (mean ± sd) (HUVECs G894T variant G/T & T/T): −61.75 (109.14) nmols/L
Peak release NO (mean ± sd) (HUVECs G894T variant G/T & T/T): 403.61 (63.52) nmols/L
Peak release NO/ONOO− (mean ± sd) (HUVECs G894T variant G/T & T/T): 1.36 (0.43)
Peak release ONOO− (mean ± sd) (HUVECs G894T variant G/T & T/T): 322.30 (90.85) nmols/L
% Change Ratio, % Change NO/% Change ONOO− (mean ± sd) (HUVECs G894T variant T/T): −0.66 (1.02)
Net increase over control NO (mean ± sd) (HUVECs G894T variant T/T): 20.73 (66.94) nmols/L
Net increase over control NO/ONOO− (mean ± sd) (HUVECs G894T variant T/T): −0.31 (0.61)
Net increase over control ONOO− (mean ± sd) (HUVECs G894T variant T/T): −116.60 (117.55) nmols/L
Peak release NO (mean ± sd) (HUVECs G894T variant T/T): 368.80 (75.73) nmols/L
Peak release NO/ONOO− (mean ± sd) (HUVECs G894T variant T/T): 1.29 (0.63)
Peak release ONOO− (mean ± sd) (HUVECs G894T variant T/T): 332.67 (129.30) nmols/L
Net increase over control NO (mean ± sd) (HUVECs Intron 4 variant a/a): −25.78 (104.49) nmols/L
Net increase over control NO/ONOO− (mean ± sd) (HUVECs Intron 4 variant a/a): −0.11 (0.56)
Net increase over control ONOO− (mean ± sd) (HUVECs Intron 4 variant a/a): 26.11 (116.99) nmols/L
Peak release NO (mean ± sd) (HUVECs Intron 4 variant a/a): 360.56 (80.60) nmols/L
Peak release NO/ONOO− (mean ± sd) (HUVECs Intron 4 variant a/a): 0.97 (0.57)
Peak release ONOO− (mean ± sd) (HUVECs Intron 4 variant a/a): 421.11 (124.25) nmols/L
Net increase over control NO (mean ± sd) (HUVECs Intron 4 variant b/a): 56.57 (67.97) nmols/L
Net increase over control NO/ONOO− (mean ± sd) (HUVECs Intron 4 variant b/a): 0.28 (0.43)
